{"source": "paper PMC8035703", "about": "“Effect of Synchronous Versus Sequential Regimens on the Pharmacokinetics and Biodistribution of Regorafenib with Irradiation” (Pharmaceutics, 2021)", "key": {"[1]": {"test_system": "Huh-7 cells", "test": "Cell cycle analysis (propidium iodide, flow cytometry)", "type": "cell-based, human", "method": "The cells were collected, fixed and stained with propidium iodide. Flow cytometry was performed, using a Beckman Coulter Elite Epics sorter. The sub-G1 phase was used to quantify dead cells in the apoptosis assays. Cells were released into DMSO or regorafenib at 5, 10 and 20 μM in the concurrent or sequential groups with different RT doses. Floating and adherent cells were harvested at various time points, stained with propidium iodide and analyzed by flow cytometry."}, "[2]": {"test_system": "Huh-7 cells", "test": "Apoptosis assay (Annexin-V FITC / PI)", "type": "cell-based, human", "text": "Annexin-V FITC and propidium iodide (PI) (BD Bioscience Pharmingen (San Diego, CA, USA)) were used to identify apoptotic cells by FACScan. Cells that were positive for Annexin V and negative for PI were defined as early apoptotic cells. Cells that were positive for both Annexin V and PI were defined as late apoptotic cells."}, "[3]": {"test_system": "Hep G2 cells", "test": "Cell viability assay (MTT), Hep G2", "type": "cell-based", "conditions": "Homo sapiens; for IC50: MTT after 24 h, read-out: IC50 (estimated concentration at which 50% of cells were killed); for viability at 5 µM: HepG2, regorafenib 5 μM; for viability at 10 µM: HepG2, regorafenib 10 μM; for viability at 20 µM: HepG2, regorafenib 20 μM", "method": "Human hepatoma Huh-7 and Hep G2 cell lines kindly provided by Professor Hu (Taipei Veterans General Hospital, Taiwan) were plated into 96-well plates (1 × 10^3 per well) with serum-containing medium (100 μL) for 1 day. Regorafenib at concentrations of 0, 5, 10 and 20 μmol/L (μM) was added to the plates. Then, the study groups were designed: the concurrent group (1 h after irradiation) or sequential group (24 h after irradiation) with sham RT (RT0 Gy), 2 Gy (RT2 Gy) and 9 Gy (RT9 Gy). Additionally, after 24 h, 20 μL of 5 mg/mL MTT was added to the plates and incubated for 3 h. The supernatant was discarded, the precipitate was dissolved in 200 μL DMSO, and the plates were read with a microplate reader at 570 nm and a reference wavelength of 630 nm."}}, "note": "Like-named read-outs stand apart in the source and are kept apart here.", "data": [{"smiles": "CNC(=O)c1cc(Oc2ccc(NC(=O)Nc3ccc(Cl)c(C(F)(F)F)c3)c(F)c2)ccn1", "note": "[regorafenib, Regorafenib]", "values": [{"measurement": "Accumulation of sub-G1 Huh-7 cells (in words)", "setting": "[1]; concurrent groups", "value": "correlated with the dose of regorafenib but was not correlated with RT or its absence"}, {"measurement": "Accumulation of sub-G1 Huh-7 cells (in words)", "setting": "[1]; sequential groups", "value": "correlated with the doses of regorafenib and RT"}, {"measurement": "Late apoptosis of Huh-7 cells (in words)", "setting": "[2]; RT followed by regorafenib", "value": "enhanced the late apoptosis of Huh-7 cells"}, {"measurement": "Apoptosis of Huh-7 cells (in words)", "setting": "[2]; regorafenib concurrent with or following RT", "value": "caused Huh-7 cell apoptosis in a dose-dependent manner"}, {"measurement": "IC50", "setting": "[3]; HepG2, 24 h, Hep G2, RT0 Gy, S (regorafenib added 24 h following RT)", "value": 17.7, "unit": "µM"}, {"measurement": "IC50", "setting": "[3]; HepG2, 24 h, Hep G2, RT2 Gy, S (regorafenib added 24 h following RT)", "value": 18.9, "unit": "µM"}, {"measurement": "IC50", "setting": "[3]; HepG2, 24 h, Hep G2, RT9 Gy, S (regorafenib added 24 h following RT)", "value": 16.8, "unit": "µM"}, {"measurement": "IC50", "setting": "[3]; HepG2, Hep G2, RT0 Gy, C (regorafenib added 1 h following RT)", "value": 9.87, "unit": "µM"}, {"measurement": "IC50", "setting": "[3]; HepG2, Hep G2, RT2 Gy, C (regorafenib added 1 h following RT)", "value": 10.5, "unit": "µM"}, {"measurement": "IC50", "setting": "[3]; HepG2, Hep G2, RT9 Gy, C (regorafenib added 1 h following RT)", "value": 8.43, "unit": "µM"}, {"measurement": "viability at 5 µM", "setting": "[3]; Hep G2, RT0 Gy, C", "value": "74.6 ± 2.4", "unit": "%"}, {"measurement": "viability at 5 µM", "setting": "[3]; Hep G2, RT0 Gy, S", "value": "82 ± 1.9", "unit": "%"}, {"measurement": "viability at 5 µM", "setting": "[3]; Hep G2, RT2 Gy, C", "value": "73.1 ± 11.7", "unit": "%"}, {"measurement": "viability at 5 µM", "setting": "[3]; Hep G2, RT2 Gy, S", "value": "72.1 ± 1.7", "unit": "%"}, {"measurement": "viability at 5 µM", "setting": "[3]; Hep G2, RT9 Gy, C", "value": "64.7 ± 11.3", "unit": "%"}, {"measurement": "viability at 5 µM", "setting": "[3]; Hep G2, RT9 Gy, S", "value": "71 ± 5.3", "unit": "%"}, {"measurement": "viability at 10 µM", "setting": "[3]; Hep G2, RT0 Gy, C", "value": "51.3 ± 3.1", "unit": "%"}, {"measurement": "viability at 10 µM", "setting": "[3]; Hep G2, RT0 Gy, S", "value": "67 ± 1.3", "unit": "%"}, {"measurement": "viability at 10 µM", "setting": "[3]; Hep G2, RT2 Gy, C", "value": "50.8 ± 7", "unit": "%"}, {"measurement": "viability at 10 µM", "setting": "[3]; Hep G2, RT2 Gy, S", "value": "64.1 ± 1.3", "unit": "%"}, {"measurement": "viability at 10 µM", "setting": "[3]; Hep G2, RT9 Gy, C", "value": "46.7 ± 8.9", "unit": "%"}, {"measurement": "viability at 10 µM", "setting": "[3]; Hep G2, RT9 Gy, S", "value": "64.2 ± 4.3", "unit": "%"}, {"measurement": "viability at 20 µM", "setting": "[3]; Hep G2, RT0 Gy, C", "value": "24.7 ± 1.2", "unit": "%"}, {"measurement": "viability at 20 µM", "setting": "[3]; Hep G2, RT0 Gy, S", "value": "46 ± 3.4", "unit": "%"}, {"measurement": "viability at 20 µM", "setting": "[3]; Hep G2, RT2 Gy, C", "value": "24.5 ± 2.5", "unit": "%"}, {"measurement": "viability at 20 µM", "setting": "[3]; Hep G2, RT2 Gy, S", "value": "42.4 ± 0.8", "unit": "%"}, {"measurement": "viability at 20 µM", "setting": "[3]; Hep G2, RT9 Gy, C", "value": "20.6 ± 1.5", "unit": "%"}, {"measurement": "viability at 20 µM", "setting": "[3]; Hep G2, RT9 Gy, S", "value": "38.5 ± 1.9", "unit": "%"}]}]}
